Numbered stars: 1 amine (or outer) side, 2 acyl side, 3 side chain; on linkers, the order of the positions; unused ones are H or OH. Bridge positions count the residues as written; N and C are the ends. Square brackets hold non-standard residues; d marks the D form. Peptide text beside a SMILES is read from it. I, II: the chains in the order shown. Actinocin(9to1) = Cc1c2oc3c(C)ccc(C(=O)[*:1])c3nc-2c(C(=O)[*:2])c(N)c1=O; NMeV = CN[C@H](C(=O)O)C(C)C; Sar = CNCC(=O)O
Columns and labels:
Format in all cases: cell-based, mouse
BDNF targets = assay: Immunoblotting for BDNF target proteins with or without Actinomycin-D; details: Actinomycin-D 0.5 μg/mL added 10 min before stimulation
Description: […] Bath application of BDNF (100 ng/mL) was for designated periods (5 min-2 hours). The cultures were washed 3 times and harvested on ice with lysis buffer (50 mM Hepes, 150 mM NaCl, 10% Glycerol, 1 mM EDTA, 1% Triton-X-100, 0.2% SDS) plus freshly added protease inhibitor cocktail (Roche) and PMSF. Protein concentration was determined by Bradford Assay. If required, lysates were treated with Lambda Protein Phosphatase according to manufacturer's instructions (New England Biolabs P0753S). Equal amounts of lysate protein were resolved on SDS-PAGE gels, and electrotransferred to PVDF membrane. Membrane was blocked with 5% milk in Tris-buffered saline tween 20 (TBST) and probed with primary antibodies in 5% milk or BSA in TBST: GluR1 (Millipore AB1504), CaMKIIα (Zymed 13-7300), Homer2 (gift of P. Worley), KCC2 (Upstate 07-432), Kv1.1 (NeuroMab 73-007), β-tubulin (U. Iowa DSHB, clone E-7), GAPDH (gift of S. Snyder), GW182 (18033 gift of M. Fritzler or Abcam ab84403), Dcp1a (gift of J. Lykke-Andersen or NeuroMab clone3G4), phospho-ERK ½ (Sigma M 7802), Dicer (NeuroMab clone N167/7), TRBP (Abeam ab72110), Lin28a (Cell Signaling A177), Lin28b (gift of E. Moss or Cell Signaling 5422), Arc (SantaCruz 17839), mCherry (Clontech 632496), GFP (NeuroMab N86/8).

[1] = tested on: hippocampal pyramidal neurons; assay: Live cell imaging of P-body numbers (GFP-Dcp1a); details: 15 μM
Description: Dissociated hippocampal cultures were prepared from postnatal day 0 (P0) mice as previously described (Meffert et al., 2003). Knockdown was by lentiviral-mediated delivery of shRNA to cultures at multiplicity of infection of 5-10, 48 hr before imaging or 4-5 days for GW182. Cultures were preincubated 10-20 min and mock- or BDNF-stimulated (100 ng/mL BDNF) in the presence of Actinomycin-D (0.5 μg/mL), unless indicated otherwise.
Confocal images of hippocampal pyramidal neurons were acquired on either a Yokogawa spinning disk (Zeiss) at 37° C. (live cells), or a LSM5 Pascal system (fixed cells). Laser power and exposure time were adjusted to minimize photobleaching and avoid saturation. […]
Dissociated hippocampal cultures were prepared from postnatal day 0 (P0) mice as previously described (Meffert et al., 2003) and were maintained in Neurobasal A medium (Gibco, 10888) with B27 Supplement (Gibco 17504-44). […] For live cell imaging, confocal images of hippocampal pyramidal neurons (excitatory, determined by morphology) in 0.24-0.3 μm Z sections were acquired using a 40×, 1.3 NA, EC Plan Neofluoar (whole cells) or a 100×, 1.4 NA Plan Apochromat oil immersion objective (dendrites) on a Yokogawa spinning disk system (Cell Observer, Carl Zeiss) at 37° C. in Tyrodes buffer (in mM: 119 NaCl, 5 KCl, 2 CaCl2, 0.2 MgCl2, Glucose, 25 Hepes, 0.01 Glycine, pH 7.4). […]

cultured neurons = assay: 35S-labelling total protein synthesis; details: mock or BDNF 100 ng/mL 2 hours, Actinomycin-D
Description: Cultured neurons were pre-incubated in media containing reduced-serum and Actinomycin-D as previously described, followed by washing and incubation for 10 min with methionine- and cysteine-free DMEM (Mediatech, Inc.), and ^35S labeling in the same DMEM with the addition of ^355-methionine/cysteine (^35S Met/Cys EasyTag Mix, Perkin Elmer) to a final concentration of […]. Mock- or BDNF stimulation was for 2 hours. Cells were washed and lysed with lysis buffer (see immunoblotting). Lysates were centrifuged and collected supernatants subjected to Bradford assay. To assess newly synthesized proteins, 200-500 μg of lysates proteins were precipitated with 10% trichloroacetic acid (TCA) for 1 hour on ice in the presence of 0.5% deoxycholate (DOC) to remove interfering phenol red. After centrifugation, protein pellets were washed with ice-cold 95% ethanol, solubilized in denaturing buffer ([…] Tris pH 8.3, 5 mM EDTA, 0.05% SDS, 6M urea), and subjected to liquid scintillation counting (Econofluor, New England Nuclear, Inc.). ^35S Disintegration per minute (DPM) was used to quantitate protein synthesis after subtraction of background readings.

Cc1c2oc3c(C)ccc(C(=O)N[C@@H]4C(=O)N[C@H](C(C)C)C(=O)N5CCC[C@H]5C(=O)N(C)CC(=O)N(C)[C@@H](C(C)C)C(=O)O[C@@H]4C)c3nc-2c(C(=O)N[C@@H]2C(=O)N[C@H](C(C)C)C(=O)N3CCC[C@H]3C(=O)N(C)CC(=O)N(C)[C@@H](C(C)C)C(=O)O[C@@H]2C)c(N)c1=O [Actinomycin-D] (I: T[dV]P[Sar][NMeV] / II: T[dV]P[Sar][NMeV]; ester I:1-I:C, II:1-II:C; linker I:N-II:N via Actinocin(9to1))
BDNF-induced protein synthesis of BDNF targets (BDNF targets): does not alter BDNF-induced protein synthesis

CCn1cc(C(=O)O)c(=O)c2cc(F)c(N3CCNCC3)nc21 [Enoxacin, enoxacin]
P-body numbers in neuronal soma and dendrites [1]: rapidly and robustly increased P-body numbers
total protein synthesis (35S incorporation) (cultured neurons): did not alter basal or BDNF-induced total protein synthesis

CCn1cc(C(=O)O)c(=O)c2cc3c(cc21)OCO3 [oxolinic acid]
total protein synthesis (35S incorporation) (cultured neurons): does not alter total cellular protein synthesis
